Measurements: patent US10196390B2, “TYK2 inhibitors and uses thereof” (Nimbus Lakshmi, Inc., priority 2014, dated 2019)
Like-named read-outs stand apart in the source and are kept apart here.

What was measured:
[1] = molecular target: TYK2 (Homo sapiens (Human), UniProt P29597); assay: Tyk2 activity inhibition assay (radioactive kinase assay / Caliper assay); assay type: biochemical
Procedure, shortened: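 Radiometric format: TYK2 with peptide substrate (20 μM) and 33P-ATP at 10 μM in HEPES pH 7.5, 1% DMSO, 120 min at room temp, P81 paper capture. Caliper mobility-shift format: TYK2 9.75 nM, peptide 30 at 3 uM, ATP 16 uM (also 1 mM), 25 min at 28° C.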

[2] = molecular target: JAK2 (Homo sapiens (Human), UniProt O60674); assay: JAK2 activity inhibition assay (radioactive kinase assay / Caliper assay); assay type: biochemical
Chain of JAK2 (O60674 whole entry): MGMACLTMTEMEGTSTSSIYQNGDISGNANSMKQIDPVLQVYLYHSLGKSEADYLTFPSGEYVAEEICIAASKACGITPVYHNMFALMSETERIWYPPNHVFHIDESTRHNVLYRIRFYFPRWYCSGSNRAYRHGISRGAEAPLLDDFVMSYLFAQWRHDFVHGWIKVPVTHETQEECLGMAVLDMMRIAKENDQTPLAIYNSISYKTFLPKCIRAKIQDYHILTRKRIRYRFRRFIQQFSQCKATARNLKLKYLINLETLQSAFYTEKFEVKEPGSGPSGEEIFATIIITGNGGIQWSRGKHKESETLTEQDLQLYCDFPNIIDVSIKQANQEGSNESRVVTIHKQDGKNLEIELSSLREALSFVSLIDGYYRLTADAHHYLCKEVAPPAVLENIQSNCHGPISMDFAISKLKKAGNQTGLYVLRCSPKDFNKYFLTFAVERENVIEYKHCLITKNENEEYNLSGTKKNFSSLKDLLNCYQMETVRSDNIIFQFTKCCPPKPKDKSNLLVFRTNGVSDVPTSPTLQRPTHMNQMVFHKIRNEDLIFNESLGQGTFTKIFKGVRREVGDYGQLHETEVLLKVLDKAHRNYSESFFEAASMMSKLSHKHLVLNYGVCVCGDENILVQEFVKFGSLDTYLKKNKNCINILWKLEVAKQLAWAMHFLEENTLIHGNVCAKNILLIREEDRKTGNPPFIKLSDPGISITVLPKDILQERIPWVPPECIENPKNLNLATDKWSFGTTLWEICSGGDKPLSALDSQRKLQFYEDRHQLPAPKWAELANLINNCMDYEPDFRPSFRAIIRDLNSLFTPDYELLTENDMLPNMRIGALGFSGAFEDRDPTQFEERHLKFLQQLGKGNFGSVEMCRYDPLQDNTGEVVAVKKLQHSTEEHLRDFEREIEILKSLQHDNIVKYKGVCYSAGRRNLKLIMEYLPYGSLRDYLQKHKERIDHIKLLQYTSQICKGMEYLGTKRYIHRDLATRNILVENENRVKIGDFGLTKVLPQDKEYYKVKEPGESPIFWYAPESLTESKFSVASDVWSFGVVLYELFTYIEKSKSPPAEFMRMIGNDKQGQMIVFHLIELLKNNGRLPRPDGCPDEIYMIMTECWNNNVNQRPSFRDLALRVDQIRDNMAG
Procedure, shortened: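 Mobility-shift (Caliper) read-out of phosphorylated peptide substrate. Compound diluted in 25 mM HEPES pH 7.5, 0.01% Brij-35, 0.01% Triton, 0.5 mM EGTA; enzyme added, then peptide plus ATP in 10 mM MgCl2. Incubated 25 min at 28° C, stopped with EDTA buffer.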

[3] = tested on: Tyk2-pSTAT4; assay: IL-12 induced pSTAT4 in human PBMC; assay type: cell-based; conditions: read-out: Tyk2-pSTAT4 EC50
Method: (§1) Human PBMC are isolated from buffy coat and are stored frozen for assays as needed. Cells for assay are thawed and resuspended in complete media containing serum, then cells are diluted to 1.67 E6 cells/ml so that 120 μl per well is 200,000 cells. 15 μl of compound or DMSO is added to the well at the desired concentrations and incubated at 1 hr at 37 C. 15 μl of stimulus (final concentration of 1.7 ng/mL IL-12) is added for 30 minutes prior to pSTAT4 and total STAT4 analysis using cell lysates prepared and analyzed by MSD reagents as per manufacturer protocol. The final DMSO concentration of compound in the assay is 0.1%.

[4] = tested on: JAK2-pSTAT5; assay: GM-CSF induced pSTAT5 in human PBMC; assay type: cell-based; conditions: read-out: JAK2-pSTAT5 EC50
Method: as §1, with “Cells for assay are thawed and resuspended in complete media containing serum, then cells are diluted to 1.67 E6 cells/ml so that 120 μl per well is 200,000 cells.” left out
Cells are prepared for analysis as in the above procedure and 15 μl of GM-CSF (final concentration 5 ng/mL) is added for 20 minutes prior to pSTAT5 and total STAT5 analysis using cell lysates prepared and analyzed by MSD reagents as per manufacturer protocol. The final DMSO concentration of compound in the assay is 0.1%.

[5] = IL-12 induced pSTAT4, human PBMC
[6] = GM-CSF induced pSTAT5, human PBMC

Chain of TYK2 (P29597 whole entry): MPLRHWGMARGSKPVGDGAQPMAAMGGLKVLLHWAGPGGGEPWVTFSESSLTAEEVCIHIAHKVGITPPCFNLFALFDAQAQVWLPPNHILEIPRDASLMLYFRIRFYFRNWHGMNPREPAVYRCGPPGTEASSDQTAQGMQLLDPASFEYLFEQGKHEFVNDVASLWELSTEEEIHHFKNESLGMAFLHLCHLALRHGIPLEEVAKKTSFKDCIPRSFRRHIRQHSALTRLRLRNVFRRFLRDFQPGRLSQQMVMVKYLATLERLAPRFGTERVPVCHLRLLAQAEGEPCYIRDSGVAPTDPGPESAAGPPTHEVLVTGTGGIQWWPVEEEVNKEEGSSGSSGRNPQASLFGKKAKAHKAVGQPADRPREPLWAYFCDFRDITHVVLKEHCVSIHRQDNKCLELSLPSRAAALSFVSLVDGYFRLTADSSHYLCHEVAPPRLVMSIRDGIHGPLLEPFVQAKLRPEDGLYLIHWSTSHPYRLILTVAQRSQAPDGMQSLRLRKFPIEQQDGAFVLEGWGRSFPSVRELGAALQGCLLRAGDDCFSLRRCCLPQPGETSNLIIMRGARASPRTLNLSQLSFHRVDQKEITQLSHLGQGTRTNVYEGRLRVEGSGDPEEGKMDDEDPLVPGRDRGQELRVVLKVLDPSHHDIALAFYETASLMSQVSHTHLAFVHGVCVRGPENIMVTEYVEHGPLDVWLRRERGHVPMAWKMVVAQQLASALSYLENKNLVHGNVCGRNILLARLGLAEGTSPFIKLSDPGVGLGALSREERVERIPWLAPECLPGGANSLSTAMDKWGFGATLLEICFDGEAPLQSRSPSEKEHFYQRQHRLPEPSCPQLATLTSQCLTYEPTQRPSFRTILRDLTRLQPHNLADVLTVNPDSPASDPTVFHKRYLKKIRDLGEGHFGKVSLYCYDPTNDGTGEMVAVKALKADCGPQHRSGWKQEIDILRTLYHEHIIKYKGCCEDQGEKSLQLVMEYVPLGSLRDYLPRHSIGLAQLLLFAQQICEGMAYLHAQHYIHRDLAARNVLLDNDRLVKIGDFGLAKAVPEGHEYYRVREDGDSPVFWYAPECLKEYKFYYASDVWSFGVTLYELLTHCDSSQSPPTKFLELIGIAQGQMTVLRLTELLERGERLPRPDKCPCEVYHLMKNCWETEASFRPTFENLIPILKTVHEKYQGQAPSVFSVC

| Structure (SMILES) | Ki [1] | Ki ([2]; read-out: JAK2 Ki) | EC50 [3, 5] | EC50 [4, 6] | Ki [2] | EC50 ([3]; Homo sapiens, PBMC) | EC50 ([4]; Homo sapiens, PBMC) |
| --- | --- | --- | --- | --- | --- | --- | --- |
| O=C(Cc1ccc(Nc2nc(-c3c(F)cccc3F)nc3c2C(=O)NC3)cc1)NC1CCOCC1 [Compound I-65, 2-(4-((2-(2,6-difluorophenyl)-5-oxo-6,7-dihydro-5H-pyrrolo[3,4-d]pyrimidin-4-yl)amino)phenyl)-N-(tetrahydro-2H-pyran-4-yl)acetamide] | < 0.01 µM | 0.1 to 1 µM | < 2 µM | > 20 µM | – | – | – |
| CN1CCN(C(=O)Cc2ccc(Nc3nc(-c4c(F)cccc4F)nc4c3C(=O)NC4)cc2)CC1 [Compound I-67, 2-(2,6-difluorophenyl)-4-((4-(2-(4-methylpiperazin-1-yl)-2-oxoethyl)phenyl)amino)-6,7-dihydro-5H-pyrrolo[3,4-d]pyrimidin-5-one] | < 0.01 µM | – | < 2 µM | > 20 µM | 0.01 to 0.1 µM | – | – |
| O=C1NCc2nc(-c3c(F)cccc3F)nc(Nc3ccc(CC(=O)N4CCN(CC(F)F)CC4)cc3)c21 [Compound I-78, 4-((4-(2-(4-(2,2-difluoroethyl)piperazin-1-yl)-2-oxoethyl)phenyl)amino)-2-(2,6-difluorophenyl)-6,7-dihydro-5H-pyrrolo[3,4-d]pyrimidin-5-one] | < 0.01 µM | – | – | – | 0.01 to 0.1 µM | < 2 µM | > 20 µM |
| CCNC(=O)Cc1ccc(Nc2cc(-c3c(F)cccc3F)nc3c2C(=O)NC3)nc1 [Compound I-88, 2-(6-((2-(2,6-difluorophenyl)-5-oxo-6,7-dihydro-5H-pyrrolo[3,4-b]pyridin-4-yl)amino)pyridin-3-yl)-N-ethylacetamide] | 0.01 to 0.1 µM | 0.1 to 1 µM | – | – | – | < 2 µM | < 2 µM |
| CC(C)(C(=O)O)c1ccc(Nc2nc(-c3c(F)cccc3F)nc3c2C(=O)NC3)cc1 [Compound I-109, 2-(4-((2-(2,6-difluorophenyl)-5-oxo-6,7-dihydro-5H-pyrrolo[3,4-d]pyrimidin-4-yl)amino)phenyl)-2-methylpropanoic Acid] | < 0.01 µM | 0.1 to 1 µM | – | > 20 µM | – | 2 to 20 µM | – |
| COc1ccc(Nc2nc(-c3c(F)cccc3F)nc3c2C(=O)NC3)cc1 [Compound I-110, 2-(2,6-difluorophenyl)-4-((4-methoxyphenyl)amino)-6,7-dihydro-5H-pyrrolo[3,4-d]pyrimidin-5-one] | < 0.01 µM | > 1 µM | – | – | – | < 2 µM | > 20 µM |
| O=C1NCc2nc(-c3c(F)cccc3Cl)nc(Nc3ccc([C@@H]4CCNC4=O)cc3)c21 [Compound I-115, (S)-2-(2-chloro-6-fluorophenyl)-4-((4-(2-oxopyrrolidin-3-yl)phenyl)amino)-6,7-dihydro-5H-pyrrolo[3,4-d]pyrimidin-5-one] | 0.01 to 0.1 µM | 0.1 to 1 µM | < 2 µM | 2 to 20 µM | – | – | – |
| O=C1NCc2nc(-c3c(F)cccc3F)nc(Nc3ccc(C4CCN(C5CCC5)C4=O)cc3)c21 (stereo not drawn) [Compound I-117, 4-((4-(1-cyclobutyl-2-oxopyrrolidin-3-yl)phenyl)amino)-2-(2,6-difluorophenyl)-6,7-dihydro-5H-pyrrolo[3,4-d]pyrimidin-5-one] | < 0.01 µM | 0.1 to 1 µM | – | – | – | < 2 µM | > 20 µM |
| O=C1NCc2nc(-c3c(F)cccc3F)nc(Nc3ccc(Cn4ccnn4)cc3)c21 [Compound I-128, 4-((4-((1H-1,2,3-triazol-1-yl)methyl)phenyl)amino)-2-(2,6-difluorophenyl)-6,7-dihydro-5H-pyrrolo[3,4-d]pyrimidin-5-one] | < 0.01 µM | 0.1 to 1 µM | – | – | – | < 2 µM | > 20 µM |
| CC(C)NC(=O)c1ccc(Nc2cc(-c3c(F)cccc3F)nc3c2C(=O)NC3)nc1 [Compound I-138, 6-((2-(2,6-difluorophenyl)-5-oxo-6,7-dihydro-5H-pyrrolo[3,4-b]pyridin-4-yl)amino)-N-isopropylnicotinamide] | < 0.01 µM | 0.01 to 0.1 µM | – | – | – | < 2 µM | 2 to 20 µM |

The next lines start with results.

| Ki [1] | Ki ([2]; read-out: JAK2 Ki) | EC50 [3, 5] | EC50 [4, 6] | Structure (SMILES) | Ki [2] | EC50 ([3]; Homo sapiens, PBMC) | EC50 ([4]; Homo sapiens, PBMC) |
| --- | --- | --- | --- | --- | --- | --- | --- |
| < 0.01 µM | 0.1 to 1 µM | < 2 µM | > 20 µM | O=C1NCc2nc(-c3c(F)cccc3F)nc(Nc3ccc(CC(=O)N4CCOCC4)cc3)c21 [Compound I-66, 2-(2,6-difluorophenyl)-4-((4-(2-morpholino-2-oxoethyl)phenyl)amino)-6,7-dihydro-5H-pyrrolo[3,4-d]pyrimidin-5-one] | – | – | – |
| < 0.01 µM | 0.01 to 0.1 µM | < 2 µM | > 20 µM | O=C1NCc2nc(-c3c(F)cccc3F)nc(Nc3ccc([C@H]4CCNC4=O)cc3)c21 [Compound I-86, (R)-2-(2,6-difluorophenyl)-4-((4-(2-oxopyrrolidin-3-yl)phenyl)amino)-6,7-dihydro-5H-pyrrolo[3,4-d]pyrimidin-5-one] | – | – | – |
| < 0.01 µM | 0.01 to 0.1 µM | < 2 µM | > 20 µM | O=C1NCc2nc(-c3c(F)cccc3F)nc(Nc3ccc([C@@H]4CCNC4=O)cc3)c21 [Compound I-87, (S)-2-(2,6-difluorophenyl)-4-((4-(2-oxopyrrolidin-3-yl)phenyl)amino)-6,7-dihydro-5H-pyrrolo[3,4-d]pyrimidin-5-] | – | – | – |
| < 0.01 µM | 0.1 to 1 µM | < 2 µM | 2 to 20 µM | O=C1NCc2nc(-c3c(F)cccc3Cl)nc(Nc3ccc([C@H]4CCNC4=O)cc3)c21 [Compound I-114, (R)-2-(2-chloro-6-fluorophenyl)-4-((4-(2-oxopyrrolidin-3-yl)phenyl)amino)-6,7-dihydro-5H-pyrrolo[3,4-d]pyrimidin-5-one] | – | – | – |
| < 0.01 µM | 0.01 to 0.1 µM | < 2 µM | < 2 µM | O=C1NCc2nc(-c3c(F)cccc3F)cc(Nc3ccc(NCCN4CCC(F)(F)CC4)cn3)c21 [Compound I-135, 2-(2,6-difluorophenyl)-4-((5-((2-(4,4-difluoropiperidin-1-yl)ethyl)amino)pyridin-2-yl)amino)-6,7-dihydro-5H-pyrrolo[3,4-b]pyridin-5-one] | – | – | – |
| < 0.01 µM | 0.01 to 0.1 µM | < 2 µM | < 2 µM | CC1(O)CCN(c2ccc(Nc3cc(-c4c(F)cccc4F)nc4c3C(=O)NC4)nc2)CC1 [Compound I-137, 2-(2,6-difluorophenyl)-4-((5-(4-hydroxy-4-methylpiperidin-1-yl)pyridin-2-yl)amino)-6,7-dihydro-5H-pyrrolo[3,4-b]pyridin-5-one] | – | – | – |
| < 0.01 µM | 0.01 to 0.1 µM | < 2 µM | 2 to 20 µM | O=C(NCC(F)(F)F)c1ccc(Nc2cc(-c3c(F)cccc3F)nc3c2C(=O)NC3)nc1 [Compound I-140, 6-((2-(2,6-difluorophenyl)-5-oxo-6,7-dihydro-5H-pyrrolo[3,4-b]pyridin-4-yl)amino)-N-(2,2,2-trifluoroethyl)nicotinamide] | – | – | – |
| < 0.01 µM | 0.01 to 0.1 µM | < 2 µM | > 20 µM | O=C1NCc2nc(-c3c(F)cccc3F)cc(Nc3ccc(N4CCC(N5CCOCC5)CC4)cn3)c21 [Compound I-142, 2-(2,6-difluorophenyl)-4-((5-(4-morpholinopiperidin-1-yl)pyridin-2-yl)amino)-6,7-dihydro-5H-pyrrolo[3,4-b]pyridin-5-one] | – | – | – |
| < 0.01 µM | 0.01 to 0.1 µM | < 2 µM | < 2 µM | O=C1NCc2nc(-c3c(F)cccc3F)cc(Nc3ccc(N4CCC(O)CC4)cn3)c21 [Compound I-147, 2-(2,6-difluorophenyl)-4-((5-(4-hydroxypiperidin-1-yl)pyridin-2-yl)amino)-6,7-dihydro-5H-pyrrolo[3,4-b]pyridin-5-one] | – | – | – |
| < 0.01 µM | 0.01 to 0.1 µM | < 2 µM | 2 to 20 µM | O=C1NCc2nc(-c3c(F)cccc3F)cc(Nc3ccc(OCCN4CCOCC4)cn3)c21 [Compound I-148, 2-(2,6-difluorophenyl)-4-((5-(2-morpholinoethoxy)pyridin-2-yl)amino)-6,7-dihydro-5H-pyrrolo[3,4-b]pyridin-5-one] | – | – | – |
| < 0.01 µM | 0.01 to 0.1 µM | < 2 µM | 2 to 20 µM | CN1CCC(C)(c2ccc(Nc3nc(-c4c(F)cccc4F)nc4c3C(=O)NC4)cc2)C1=O (stereo not drawn) [Compound I-150, 2-(2,6-difluorophenyl)-4-((4-(1,3-dimethyl-2-oxopyrrolidin-3-yl)phenyl)amino)-6,7-dihydro-5H-pyrrolo[3,4-d]pyrimidin-5-one] | – | – | – |
